A short description of data set [1]: General toxicology in ICR mice. The conditions noted are these: mouse, in vivo, ICR mice (male).
Data set [2] concerns Human cervical carcinoma HeLa cells. The experiment in a line: In vitro antitumor test (trypan blue exclusion viable cell count), HeLa. The class given is cell-based. The method, then: (§1) An appropriate amount of NFD was dissolved in DMSO to give a 1.0 mg/ml stock solution, which was diluted as necessary before use.
(§2) The following cells in the late logarithmic phase were harvested after treatment with trypsin (containing 0.25% trypsin and 0.02% EDTA; 37° C., 3 min) and used in the test: human lung adenocarcinoma cell lines A-549, VMRC-LCD and SK-LU-1, human lung squamous cell carcinoma Calu-1 cells, human colon adenocarcinoma WiDr cells, human prostate cancer LNCaP cells, human vaginal squamous cell carcinoma A-431 cells, human cervical carcinoma HeLa cells, human cholangiocarcinoma HuCC-T1 cells, mouse skin cancer melanoma B16 (M4) cells, human pancreatic carcinoma ASPC-1 cells, human neuroblastoma IMR-132 cells, human lung small cell carcinoma SCCH-194 cells, human uninary bladder carcinoma T24 cells, human renal cell carcinoma […] cells, human gastric cancer NUGC-2 cells, human thyroid carcinoma 8305C cells, human hepatoma HUH-7 cells, human ovarian carcinoma TYK-nu cells and human chorio carcinoma BeWo cells. […] These cells were plated onto a 96-well microplate at a density of 5-10×10^3 cells/cm^2 using DMEM or RPMI-1640 medium containing 10% fetal bovine serum and cultured for 24 hours in a conventional manner, after which a pre-determined amount of NFD dissolved in DMSO was added to each well. […]

For a further data set, the system named is malignant tumor cells. Briefly: In vitro antitumor test, panel of malignant tumor cells. It counts as cell-based, human and mouse. The method, then: as §1
The antitumor effect of NFD on human cancer cells and mouse cancer cells was assessed according to the following methods.
as §2, with “cells. Suspension cultures of human breast cancer MRK-nu-1 cells, human malignant B-cell lymphoma cells and human chronic myelogenous leukemia K562 cells were used to harvest the cells to be used in the test.” for “cells.”, “well. Cultivation was continued, and the number of viable cells was counted after 24, 48 and 72 hours.” for “well.”
Growth inhibitory action and lethal activity of NFD on various types of malignant tumor cells and normal human cells listed above were evaluated by counting the number of viable cells in each well of the 96-well microplate. […]

The next data set can be described thus: Solubility. It counts as physicochemical.
The test system of data set [3] is Human vaginal squamous cell carcinoma A-431 cells. Briefly: In vitro antitumor test (trypan blue exclusion viable cell count), A-431. The class given is cell-based. The protocol: as §1, §2
Data set [4] deals with Human gastric cancer NUGC-2 cells. The experiment in a line: In vitro antitumor test (trypan blue exclusion viable cell count), NUGC-2. It counts as cell-based. The protocol: as §1, §2
For a further data set, the system named is human lung cancer cells. Briefly: In vitro antitumor test, human lung cancer cells (FIGS. 1-4). It counts as cell-based. The method, then: as §1, §2
For data set [5], the system named is Human pancreatic carcinoma ASPC-1 cells. The experiment in a line: In vitro antitumor test (trypan blue exclusion viable cell count), ASPC-1. It counts as cell-based. The method, then:
as §1, §2

Where [6] appears, read: 72 h, three days exposure, read-out: LD50 (IC50), 50% growth-inhibitory dose.

≈ marks a conversion by molar mass, not a printed value.

As for `CC(O)c1cc2c(o1)C(=O)c1cccc(O)c1C2=O` (stereo not drawn) [NFD, 2-(1-hydroxyethyl)-5-hydroxynaphtho[2,3-b]furan-4,9-dione], the median lethal dose (LD50) – broadly, the dose at which mortality reaches 50% – turned out to be 7.3 mg/kg in data set [1] (ip, intraperitoneally) and 8.4 mg/kg in data set [1] (po, orally). Moreover, the concentration for half-maximal inhibition (IC50) – broadly, the point on the concentration scale where inhibition reaches its midpoint – is 0.018 µg/mL (≈ 0.0697 µM) in data set [2] (setting [6]); 0.0055 to 0.025 µg/mL (≈ 0.0213 to 0.0968 µM) in the data set on malignant tumor cells (read-out: LD50 (IC50) range over malignant tumor cells); 0.021 µg/mL (≈ 0.0813 µM) in data set [3] (setting [6]); 0.017 µg/mL (≈ 0.0658 µM) in data set [4] (72 h, NUGC-2, three days exposure, read-out: LD50 (IC50), 50% growth-inhibitory dose); 0.017 µg/mL (≈ 0.0658 µM) in data set [5] (ASPC1, 72 h, ASPC-1, three days exposure, read-out: LD50 (IC50), 50% growth-inhibitory dose). Also, the IC (almost complete) is 0.0224 µg/mL in data set [2] (FIG. 8, read-out: concentration inhibiting growth almost completely); 0.0279 µg/mL in data set [3] (FIG. 7, read-out: concentration inhibiting growth almost completely); 0.033 µg/mL in data set [4] (FIG. 18, read-out: concentration inhibiting cells almost completely); 0.0112 to 0.0168 µg/mL in the data set with human lung cancer cells (Homo sapiens, read-out: concentration inhibiting growth almost completely); 0.0335 µg/mL in data set [5] (ASPC1, FIG. 13, read-out: concentration inhibiting growth almost completely). For the same compound, the “selective toxicity to tumor cells” value in the data set with malignant tumor cells (23 listed tumor cells) is “exhibits selective toxicity”. In addition, the “growth inhibition of tumor cells” value in the data set on malignant tumor cells (at low concentrations, 23 listed tumor cells) is “remarkably inhibits the growth”. In the data set “Solubility” (chloroform), the solubility in chloroform entry is given as “freely soluble”. For the same compound, the solubility in dimethylsulfoxide entry in “Solubility” (dimethylsulfoxide) is “freely soluble”. The solubility in water entry in “Solubility” (water) is “slightly soluble”. Moreover, the “concentration causing necrosis in almost all tumor cells” value in the data set on human lung cancer cells was 33.5 to 55.4 ng/mL.

The values above are taken from patent US5663197A, “2-(1-hydroxyethyl)-5-hydroxynaphtho[2,3-b]furan-4,9-dione and antitumor agents comprising this compound” (priority 1992, dated 1997).
